Among the data in patent publication US8129425B2, “Small organic molecule regulators of cell proliferation” (Curis, Inc., priority 2000, dated 2012) are EC50 values, retold here.

For the experiment, the system named is hedgehog-responsive Gli-Luc reporter-construct. Kind of experiment: Gli-Luc hedgehog pathway reporter assay in [10T1/2(s12)] cells. Type of experiment: cell-based, murine. As to conditions: Table 1. The procedure: To measure the hedgehog agonist activity of compounds, we used [10T1/2(s12)] cells containing the hedgehog-responsive Gli-Luc reporter-construct. In each MTP (MicroTiter Plate; 96-well plate), 10,000-20,000 cells were plated per well, in full media (10% FBS). After about 24-48 hr, plates were switched to low-serum media (=0.5%. FBS). Subsequently, a test compound was added at 1-5 μM in the presence or absence of octyl-hedgehog (see below). After another 24 hr, the media from the MTPs was discarded and replaced with luciferase assay-mix, containing lysis-buffer with luciferase substrate. The plates were incubated at RT for about 15-30 min and read in a luminometer.
Plates were incubated for 48 hr before switching to low-serum. Compounds were screened at 1-2 μM in the presence of Hh protein (0.01 μg/ml; EC30=about 30% of max-induced activity).
Plates were incubated for 24 hr before switching to low-serum. Compounds were screened at 5 μM without adding Hh protein.
From Screen A, we identified hits identified in FIGS. 32 and 33. The 1,4-diaminocyclohexane subunit of the compounds of FIG. 32 which include this moiety have the two amino substituents disposed in a trans-relationship, e.g., both substituents equatorial on the cyclohexane subunit. These hits were confirmed in Screen B. The data shown in FIGS. 34a and 34b essentially involved dosing the two compounds in both assays (Gli-Luc & SV-Luc).
The data from the Gli-Luc assay is converted to percent activity where full activity with Hh protein is set at 100% (FIG. 35; Table 1). […] Furthermore, the compounds show a more striking induction in the presence of hedgehog (EC50=0.2-0.3 μM, ECmax=70-90% of max induced activity with Hh protein), indicating a synergy between the compounds and Hh protein, consistent with the compounds serving as agonists for the hedgehog pathway.

Regarding `COc1ccc(CN(C(=O)c2sc3ccccc3c2Cl)C2CCC(O)CC2)cc1-c1ccc(C#N)cc1` (stereo not drawn) [A′], the EC50 is less than 10 µM.

As for `CN[C@H]1CC[C@H](N(Cc2scc(-c3cccnc3)c2C)C(=O)c2sc3ccccc3c2Cl)CC1` [A′′], the EC50 is less than 10 µM.

`CN[C@H]1CC[C@H](N(Cc2cc(-c3ccncc3)cs2)C(=O)c2sc3cccc(F)c3c2Cl)CC1` [A′′′]: the EC50 was less than 0.05 µM.

For `CN[C@H]1CC[C@H](N(Cc2cccc(-c3nccs3)c2)C(=O)c2sc3ccccc3c2Cl)CC1` [B′′], the EC50 is less than 10 µM.

As for `NC1CCC(N(Cc2cccc(-c3cccnc3)c2)C(=O)c2sc3ccccc3c2Cl)CC1` (stereo not drawn) [Compound C], the EC50 was less than 1 µM.

Take `COc1ccc(CN(C(=O)c2sc3ccccc3c2C)C2CCC(N)CC2)cc1-c1ccc(C#N)cc1` (stereo not drawn) [Compound E]: the 50% effective concentration (EC50) was less than 10 µM.

Turning to `CNC1CCC(N(Cc2ccc(C)c(-c3ccc(C#N)cc3)c2)C(=O)c2sc3ccccc3c2Cl)CC1` (stereo not drawn) [Compound S], the EC50 was less than 1 µM.

Take `COc1ccc(CN(C(=O)c2sc3ccccc3c2Cl)[C@H]2CC[C@H](N)CC2)cc1-c1ccsc1` [C′]: the EC50 is less than 10 µM.

Consider `CN[C@H]1CC[C@H](N(Cc2cccc(Oc3ccccc3)c2)C(=O)c2sc3ccccc3c2Cl)CC1` [C′′], for which the EC50 was less than 10 µM.

With `COc1ccc(CN(C(=O)c2sc3ccccc3c2Cl)[C@H]2CC[C@H](N)CC2)cc1-c1cccnc1` [D′], the EC50 is less than 10 µM.

Turning to `CN[C@H]1CC[C@H](N(Cc2cccc(-c3ccc[nH]3)c2)C(=O)c2sc3ccccc3c2Cl)CC1` [D′′], the EC50 was less than 10 µM.

In the case of `CN[C@H]1CC[C@H](N(Cc2ccc(OC)c(-c3ccc(C#N)cc3)c2)C(=O)c2sc3ccc(F)c(F)c3c2Cl)CC1` [D′′′], the EC50 is less than 0.05 µM.

In the case of `COc1ccc(CN(C(=O)c2sc3ccccc3c2Cl)[C@H]2CC[C@H](N)CC2)cc1-c1ccc(F)cc1` [E′], the concentration for a half-maximal effect (EC50) is less than 10 µM.

In the case of `CN[C@H]1CC[C@H](N(Cc2ccc3c(c2)CCO3)C(=O)c2sc3ccccc3c2Cl)CC1` [E′′], the concentration giving a half-maximal response (EC50) was less than 10 µM.

On to `NC1CCC(N(Cc2ccc(-c3nccs3)cc2)C(=O)c2sc3ccccc3c2Cl)CC1` (stereo not drawn) [F], for which the EC50 is less than 10 µM.

Regarding `COc1ccc(CN(C(=O)c2sc3ccccc3c2Cl)[C@H]2CC[C@H](N)CC2)cc1-c1ccccc1` [F′], the EC50 is less than 10 µM.

As for `CN[C@H]1CC[C@H](N(Cc2ccc(OC)c(-c3ccc(C#N)cc3)c2)C(=O)c2sc3c(F)cc(F)cc3c2Cl)CC1` [F′′′], the EC50 was less than 0.05 µM.

Consider `COc1ccc(CN(C(=O)c2sc3ccccc3c2Cl)[C@H]2CC[C@H](N(C)C)CC2)cc1-c1ccc(C#N)cc1` [G′], for which the concentration for a half-maximal effect (EC50) was less than 10 µM.

Turning to `CN[C@H]1CC[C@H](N(Cc2cc(-c3ccc(C#N)cc3)cs2)C(=O)c2sc3ccccc3c2Cl)CC1` [G′′], the EC50 was less than 0.1 µM.

For `CN[C@H]1CC[C@H](N(Cc2cncc(-c3cccnc3)c2)C(=O)c2sc3ccccc3c2Cl)CC1` [G′′′], the EC50 was less than 5 µM.

For `COc1ccc(CN(C(=O)c2sc3ccccc3c2Cl)C2CCC(N)CC2)cc1-c1ccc(C(C)=O)cc1` (stereo not drawn) [H], the EC50 was less than 1 µM.

For the compound `COc1ccc(CN(C(=O)c2sc3ccccc3c2Cl)[C@H]2CC[C@H](N)CC2)cc1Br` [H′], the EC50 was greater than 10 µM.

With `CN[C@H]1CC[C@H](N(Cc2cccc(-c3ccc(N(C)C)nc3)c2)C(=O)c2sc3ccccc3c2Cl)CC1` [H′′], the EC50 was less than 0.1 µM.

With `CN[C@H]1CC[C@H](N(Cc2cccc(-c3ccncc3)c2)C(=O)c2sc3ccccc3c2Cl)CC1` [H′′′], the EC50 was less than 0.05 µM.

Consider `COc1ccc(CN(C(=O)c2sc3ccccc3c2Cl)C2CCC(N)CC2)cc1-c1ncccn1` (stereo not drawn) [I], for which the EC50 is greater than 10 µM.

Turning to `CN[C@H]1CC[C@H](N(Cc2cccc(-c3ccc(C#N)cc3)c2)C(=O)c2sc3ccccc3c2Cl)CC1` [I′], the EC50 was less than 1 µM.

Regarding `CN[C@H]1CC[C@H](N(Cc2cc(-c3ccc(S(N)(=O)=O)s3)cs2)C(=O)c2sc3ccccc3c2Cl)CC1` [I′′], the EC50 is less than 0.5 µM.

On to `NC1CCC(N(Cc2cc(-c3ccc(F)cc3)cs2)C(=O)c2sc3ccccc3c2Cl)CC1` (stereo not drawn) [J], for which the EC50 is less than 1 µM.

For the compound `CN[C@H]1CC[C@H](N(Cc2ccc(OC)c(-c3ccc(C#N)cc3)c2)C(=O)c2sc3cc(F)ccc3c2Cl)CC1` [J′], the EC50 was less than 1 µM.

As for `COc1ccc(-c2cc(CN(C(=O)c3sc4ccccc4c3Cl)C3CCC(N)CC3)ccc2OC)cc1` (stereo not drawn) [K], the EC50 was less than 1 µM.

In the case of `CN[C@H]1CC[C@H](N(Cc2ccc(OC)c(-c3ccc(C#N)cc3)c2)C(=O)c2sc3ccccc3c2C)CC1` [K′], the EC50 was less than 10 µM.

As for `CN[C@H]1CC[C@H](N(Cc2cncc(-c3ccc(S(N)(=O)=O)s3)c2)C(=O)c2sc3ccccc3c2Cl)CC1` [K′′′], the EC50 was less than 5 µM.

On to `CN[C@H]1CC[C@H](N(Cc2cccc(-c3ccc(S(=O)(=O)NC(C)(C)C)s3)c2)C(=O)c2sc3ccccc3c2Cl)CC1` [L′′], for which the EC50 was less than 1 µM.

As to `CN[C@H]1CC[C@H](N(Cc2ccc(OC)c(-c3ccc(C#N)cc3)c2)C(=O)c2sc3sccc3c2Cl)CC1` [L′′′], the EC50 was less than 5 µM.

Take `CNC1CCC(N(Cc2cccc(-c3ccncc3)c2)C(=O)c2sc3ccccc3c2Cl)CC1` (stereo not drawn) [M]: the concentration giving a half-maximal response (EC50) was less than 1 µM.

As for `CN[C@H]1CC[C@H](N(Cc2cccc(-c3ccc(S(=O)(=O)N(C)C)s3)c2)C(=O)c2sc3ccccc3c2Cl)CC1` [M′′], the EC50 was less than 1 µM.

For `CN[C@H]1CC[C@H](N(Cc2ccnc(-c3ccc(C#N)cc3)c2)C(=O)c2sc3ccccc3c2Cl)CC1` [M′′′], the EC50 was less than 0.5 µM.

Take `CNC1CCC(N(Cc2cccc(-c3ccc(C)nc3)c2)C(=O)c2sc3ccccc3c2Cl)CC1` (stereo not drawn) [N]: the concentration giving a half-maximal response (EC50) is less than 1 µM.

On to `CN[C@H]1CC[C@H](N(Cc2cccc(-c3cccnc3)n2)C(=O)c2sc3ccccc3c2Cl)CC1` [N′′], for which the EC50 was less than 1 µM.

Turning to `CN[C@H]1CC[C@H](N(Cc2ccnc(-c3ccc(S(N)(=O)=O)s3)c2)C(=O)c2sc3ccccc3c2Cl)CC1` [N′′′], the EC50 is less than 5 µM.

For the compound `CN[C@H]1CC[C@H](N(Cc2cccc(-c3ccc(S(=O)(=O)NC(C)=O)s3)c2)C(=O)c2sc3ccccc3c2Cl)CC1` [O′′], the EC50 is less than 1 µM.

Consider `CN[C@H]1CC[C@H](N(Cc2ccc(OC)c(-c3ccc(C#N)cc3)c2)C(=O)c2sc3cccc(C)c3c2Cl)CC1` [O′′′], for which the EC50 is less than 1 µM.

As for `CNC1CCC(N(Cc2cccc(-c3cnccn3)c2)C(=O)c2sc3ccccc3c2Cl)CC1` (stereo not drawn) [P], the EC50 was less than 1 µM.

In the case of `CN[C@H]1CC[C@H](N(Cc2cc(-c3ccco3)cs2)C(=O)c2sc3ccccc3c2Cl)CC1` [P′′], the EC50 is less than 10 µM.

As for `CNC1CCC(N(Cc2cccc(-c3ccccn3)c2)C(=O)c2sc3ccccc3c2Cl)CC1` (stereo not drawn) [Q], the EC50 was less than 1 µM.

As for `CN[C@H]1CC[C@H](N(Cc2ccnc(-c3ccc(N)nc3)c2)C(=O)c2sc3ccccc3c2Cl)CC1` [Q′′′], the EC50 was less than 1 µM.

For the compound `CN[C@H]1CC[C@H](N(Cc2cccc(-c3ccc(S(=O)(=O)n4c(C)ccc4C)s3)c2)C(=O)c2sc3ccccc3c2Cl)CC1` [R′′], the EC50 was less than 1 µM.

With `CN[C@H]1CC[C@H](N(Cc2ccnc(C(F)(F)F)c2)C(=O)c2sc3ccccc3c2Cl)CC1` [R′′′], the EC50 was less than 1 µM.

As for `CN[C@H]1CC[C@H](N(Cc2cncc(-c3ccc(C#N)cc3)c2)C(=O)c2sc3ccccc3c2Cl)CC1` [S′′], the concentration for a half-maximal effect (EC50) was less than 10 µM.

In the case of `CN[C@H]1CC[C@H](N(Cc2ccnc(-c3cccnc3)c2)C(=O)c2sc3ccccc3c2Cl)CC1` [S′′′], the EC50 was less than 1 µM.

On to `Cc1ccc(-c2cccc(CN(C(=O)c3sc4ccccc4c3Cl)C3CCC(N)CC3)c2)cn1` (stereo not drawn) [T], for which the EC50 is less than 10 µM.

`CN[C@H]1CC[C@H](N(Cc2cc(Cl)nc(Cl)c2)C(=O)c2sc3ccccc3c2Cl)CC1` [T′′′]: the EC50 was less than 1 µM.

Take `CNC1CCC(N(Cc2ccc(OC)c(I)c2)C(=O)c2sc3ccccc3c2Cl)CC1` (stereo not drawn) [U]: the concentration giving a half-maximal response (EC50) is less than 10 µM.

Turning to `CN[C@H]1CC[C@H](N(Cc2cccc(-c3nccnc3C)c2)C(=O)c2sc3ccccc3c2Cl)CC1` [U′], the EC50 was less than 1 µM.

With `CN[C@H]1CC[C@H](N(Cc2ccccn2)C(=O)c2sc3c(F)ccc(F)c3c2Cl)CC1` [U′′′], the EC50 was less than 1 µM.

Turning to `CN[C@H]1CC[C@H](N(Cc2cccc(-c3ccc(OC)nc3)c2)C(=O)c2sc3ccccc3c2Cl)CC1` [V′], the EC50 is less than 1 µM.

For `CN[C@H]1CC[C@H](N(Cc2cc(-c3cccnc3)cs2)C(=O)c2sc3c(F)ccc(F)c3c2Cl)CC1` [V′′], the 50% effective concentration (EC50) is less than 0.005 µM.

On to `CNC1CCC(N(Cc2cccc(I)c2)C(=O)c2sc3ccccc3c2Cl)CC1` (stereo not drawn) [W], for which the EC50 was less than 10 µM.

For the compound `CN[C@H]1CC[C@H](N(Cc2cccc(N3CCOCC3)c2)C(=O)c2sc3ccccc3c2Cl)CC1` [W′], the EC50 is less than 10 µM.

On to `CN[C@H]1CC[C@H](N(Cc2cc(-c3ccncc3)cs2)C(=O)c2sc3c(F)ccc(F)c3c2Cl)CC1` [W′′], for which the EC50 is less than 0.005 µM.

In the case of `COc1ccc(CN(C(=O)c2sc3ccccc3c2Cl)C2CCC(N)CC2)cc1-c1cccc(C#N)c1` (stereo not drawn) [X], the EC50 is less than 10 µM.

With `CN[C@H]1CC[C@H](N(Cc2cccc(Nc3ccccn3)c2)C(=O)c2sc3ccccc3c2Cl)CC1` [X′], the EC50 was less than 10 µM.

As for `COc1ccc(CN(C(=O)c2sc3ccccc3c2Cl)C2CCC(N)CC2)cc1-c1cccnc1` (stereo not drawn) [Y], the EC50 is less than 10 µM.

The EC50 is the concentration at which the effect is half-maximal.
